Read-outs that look alike come from different tables or passages of the source.
Columns and labels:
[1] = target: T1, recombinant HIV reverse transcriptase (HIV RTR) (Human immunodeficiency virus type 1 group M subtype B, UniProt P04585); assay: Reverse transcriptase assay (incorporation of tritiated dGMP into acid-precipitable cDNA); format: biochemical
T1 construct: recombinant HIV reverse transcriptase (HIV RTR); made in house; host or cells: bacteria (E. coli is named only for the purified heterodimer control)
Procedure: (§1) The assay measures the incorporation of tritiated deoxyguanosine monophosphate by recombinant HIV reverse transcriptase (HIV RTR) (or other RT) into acid-precipitable cDNA at the Km values of dGTP and poly r(C)·oligo d(G)₁₂₋₁₈.
(§2) The assays were carried out in 55 mM Tris (pH 8.2)-30 mM KCl-30 mM MgCl₂-1 mM dithiothreitol-20 µg of rC:dG₁₂₋₁₈ (Pharmacia) per ml-8 µM [³H]dGTP (New England Nuclear)-0.01% Triton X-100-50 µM ethylene glycol-bis(β-amino-ethyl ether)-N,N,N',N'-tetraacetic acid (EGTA)-1 mg of bovine serum albumin per ml. After 60 min of incubation at 37°C, acid-precipitable material was collected onto glass fiber filters by using a semiautomatic cell harvester. Bacterial cell extracts containing RT were diluted to within the linear range of the assay, and activity was determined in the presence and absence of inhibitor. Purified HIV-1 RT heterodimer produced in E. coli also served as a control.

A17 RT = target: T2, A17 RT (Human immunodeficiency virus type 1 group M subtype B, UniProt P04585, K690N/Y768C); assay: Reverse transcriptase assay, double (DBL) mutant; format: biochemical, HIV
T2 construct: A17 RT was employed in the assay; made in house; host or cells: bacteria
Procedure: as §1, §2
For the double (DBL) mutant assay, A17 RT was employed in the assay. A17 RT is resistant to various aminopyridones, as described in Nunberg, J.H. et al., J. Virol. 65, 4887 (1991).

[2] = recombinant HIV RT, 60 min at 37°C, read-out: IC50

Question: For `O=C1Nc2ccc(Cl)cc2C(C#Cc2cnccn2)(C2CC2)N1` (stereo not drawn) [Compound 16, 6-chloro-4-cyclopropyl-3,4-dihydro-4-((2-pyrazinyl)ethynyl)quinazolin-2(1H)-one], which IC50 [1, 2] is on record?
Answer: 270 nM

Question: And the IC50 (A17 RT)?
Answer: 9000 nM

Question: With `CN(C)CC#CC1(C2CC2)c2cc(Cl)ccc2NC(=O)N1C` (stereo not drawn) [Compound 9, 6-chloro-4-cyclopropyl-3,4-dihydro-3-methyl-4-(3-(N,N-dimethylamino)-1-propynyl)quinazolin-2(1H)-one] as the compound, how does the IC50 [1] read?
Answer: 54 nM

Question: What about the IC50 (A17 RT) of the same compound?
Answer: 273 nM

Question: For `CN1C(=O)Nc2ccc(Cl)cc2C1(C#CCCF)C1CC1` (stereo not drawn) [Compound 4, 6-chloro-4-cyclopropyl-4-(4-fluoro-1-butynyl)-3,4-dihydro-3-methylquinazolin-2(1H)-one], which IC50 [1] is on record?
Answer: 7 nM

Question: What about the IC50 (A17 RT) of the same compound?
Answer: 230 nM

Question: `C=CC#CC1(C2CC2)c2cc(Cl)ccc2NC(=O)N1C` (stereo not drawn) [Compound 21, 4-(3-buten-1-ynyl)-6-chloro-4-cyclopropyl-3,4-dihydro-3-methylquinazolin-2(1H)-one] was tested. Which IC50 [1] did it give?
Answer: 4.3 nM

Question: And the IC50 (A17 RT)?
Answer: 248 nM

Question: For `O=C1Nc2ccc(Cl)cc2C(C#Cc2ccncc2)(C2CC2)N1` (stereo not drawn) [Compound 13, 6-chloro-4-cyclopropyl-3,4-dihydro-4-((4-pyridyl)ethynyl)quinazolin-2(1H)-one], which IC50 [1] is on record?
Answer: 470 nM

Question: What about the IC50 (A17 RT) of the same compound?
Answer: 3000 nM

Question: `COCC#CC1(C2CC2)NC(=O)Nc2ccc(Cl)cc21` (stereo not drawn) [Compound 1, 6-chloro-4-cyclopropyl-3,4-dihydro-4-(3-methoxy-1-propynyl)quinazolin-2(1H)-one] was tested. Which IC50 [1] did it give?
Answer: 49 nM

Question: And the IC50 (A17 RT)?
Answer: 7300 nM

Question: Which results are given for `CN1C(=O)Nc2ccc(Cl)cc2C1(C#CCOCC(F)(F)F)C1CC1` (stereo not drawn) [Compound 3, 6-chloro-4-cyclopropyl-3,4-dihydro-3-methyl-4-(3-(2,2,2-trifluoroethoxy)-1-propynyl)quinazolin-2(1H)-one]?
Answer: IC50 [1]: 19 nM; IC50 (A17 RT): 2600 nM

Question: How did the IC50 [1] turn out when `CN1C(=O)Nc2ccc(Cl)cc2C1(C#CCF)C1CC1` (stereo not drawn) [Compound 8, 6-chloro-4-cyclopropyl-4-(3-fluoro-1-propynyl)-3,4-dihydro-3-methylquinazolin-2(1H)-one] was run?
Answer: 24 nM

Question: And the IC50 (A17 RT)?
Answer: 2900 nM

Question: For `O=C1Nc2ccc(Cl)cc2C(C#Cc2ccccc2)(C2CC2)N1` (stereo not drawn) [Compound 23, 6-chloro-4-cyclopropyl-3,4-dihydro-4-(phenylethynyl)quinazolin-2(1H)-one], which IC50 [1] is on record?
Answer: 6.1 nM

Question: What about the IC50 (A17 RT) of the same compound?
Answer: 135 nM

Question: Which results are given for `O=C1Nc2ccc(Cl)cc2[C@@](C#Cc2ccccn2)(C2CC2)N1` [Compound 26, 6-chloro-4(S)-cyclopropyl-3,4-dihydro-4-((2-pyridyl)ethynyl)quinazolin-2(1H)-one]?
Answer: IC50 [1]: 7 nM; IC50 (A17 RT): 400 nM

Question: Which IC50 [1] does the source give for `CN1C(=O)Nc2ccc(Cl)cc2C1(C#CCOc1ccncc1)C1CC1` (stereo not drawn) [Compound 17, 6-chloro-4-cyclopropyl-3,4-dihydro-3-methyl-4-(3-(4-pyridyloxy)-1-propynyl)quinazolin-2(1H)-one] here?
Answer: 165 nM

Question: What about the IC50 (A17 RT) of the same compound?
Answer: 3900 nM

Question: With `O=C1Nc2ccc(Cl)cc2C(C#Cc2ccccn2)(C2CC2)N1` (racemic) [Compound 11, 6-chloro-4-cyclopropyl-3,4-dihydro-4-((2-pyridyl)ethynyl)quinazolin-2(1H)-one] as the compound, how does the IC50 [1] read?
Answer: 19 nM

Question: What about the IC50 (A17 RT) of the same compound?
Answer: 635 nM

Question: For `CN1C(=O)Nc2ccc(Cl)cc2C1(C#CCn1ccnc1)C1CC1` (stereo not drawn) [Compound 20, 6-chloro-4-cyclopropyl-3,4-dihydro-4-(3-(1-imidazolyl)-1-propynyl)-3-methylquinazolin-2(1H)-one], which IC50 [1] is on record?
Answer: 620 nM

Question: What about the IC50 (A17 RT) of the same compound?
Answer: 960 nM

Question: With `CN1C(=O)Nc2ccc(Cl)cc2C1(C#CCO)C1CC1` (stereo not drawn) [Compound 22, 6-Chloro-4-cyclopropyl-3,4-dihydro-4-(3-hydroxy-1-propynyl)-3-methylquinazolin-2(1H)-one] as the compound, how does the IC50 [1] read?
Answer: 255 nM

Question: Which results are given for `CN1C(=O)Nc2ccc(Cl)cc2C1(C#CCN1CCOCC1)C1CC1` (stereo not drawn) [Compound 19, 6-chloro-4-cyclopropyl-3,4-dihydro-3-methyl-4-(3-(4-morpholinyl)-1-propynyl)quinazolin-2(1H)-one]?
Answer: IC50 [1]: 1000 nM; IC50 (A17 RT): 22000 nM

Question: How did the IC50 [1] turn out when `CN1C(=O)Nc2ccc(Cl)cc2C1(C#Cc1ccccn1)C1CC1` (stereo not drawn) [Compound 10, 6-chloro-4-cyclopropyl-3,4-dihydro-3-methyl-4-((2-pyridyl)ethynyl)quinazolin-2(1H)-one] was run?
Answer: 21 nM

Question: What about the IC50 (A17 RT) of the same compound?
Answer: 87 nM

Question: `COCC#CC1(C2CC2)c2cc(Cl)ccc2NC(=O)N1C` (stereo not drawn) [Compound 2, 6-chloro-4-cyclopropyl-3,4-dihydro-3-methyl-4-(3-methoxy-1-propynyl)quinazolin-2(1H)-one] was tested. Which IC50 [1] did it give?
Answer: 13 nM

Question: What about the IC50 (A17 RT) of the same compound?
Answer: 700 nM

Question: How did the IC50 [1] turn out when `CN1C(=O)Nc2ccc(Cl)cc2C1(C#CCOc1ccccn1)C1CC1` (stereo not drawn) [Compound 24, 6-Chloro-4-cyclopropyl-3,4-dihydro-3-methyl-4-(3-(2-pyridyloxy)-1-propynyl)quinazolin-2(1H)-one] was run?
Answer: 125 nM

Question: And the IC50 (A17 RT)?
Answer: 4900 nM

Question: Which IC50 [1, 2] does the source give for `O=C1Nc2ccc(Cl)cc2C(C#Cc2ncccn2)(C2CC2)N1` (stereo not drawn) [Compound 15, 6-chloro-4-cyclopropyl-3,4-dihydro-4-((2-pyrimidinyl)ethynyl)quinazolin-2(1H)-one] here?
Answer: 130 nM

Question: What about the IC50 (A17 RT) of the same compound?
Answer: 8800 nM

Question: How did the IC50 [1, 2] turn out when `CN1C(=O)Nc2ccc(Cl)cc2C1(C#CCOc1cc[n+]([O-])cc1)C1CC1` (stereo not drawn) [Compound 18, 6-chloro-4-cyclopropyl-3,4-dihydro-3-methyl-4-(3-(4-(N-oxopyridyl)oxy)-1-propynyl)quinazolin-2(1H)-one] was run?
Answer: 9400 nM

Question: What about the IC50 (A17 RT; A17 RT (double mutant, resistant to aminopyridones), read-out: IC50DBL Mutant) of the same compound?
Answer: 65000 nM

Question: Which IC50 [1] does the source give for `O=C1Nc2ccc(Cl)cc2C(C#CCCF)(C2CC2)N1` (stereo not drawn) [Compound 5, 6-chloro-4-cyclopropyl-4-(4-fluoro-1-butynyl)-3,4-dihydroquinazolin-2(1H)-one] here?
Answer: 31 nM

Question: And the IC50 (A17 RT)?
Answer: 3500 nM

Question: Which IC50 [1] does the source give for `O=C1Nc2ccc(Cl)cc2C(C#Cc2cccnc2)(C2CC2)N1` (stereo not drawn) [Compound 12, 6-chloro-4-cyclopropyl-3,4-dihydro-4-((3-pyridyl)ethynyl)quinazolin-2(1H)-one] here?
Answer: 84 nM

Question: And the IC50 (A17 RT)?
Answer: 310 nM

Question: What does the source list for `O=C1Nc2ccc(Cl)cc2C(C#Cc2ccccc2[N+](=O)[O-])(C2CC2)N1` (stereo not drawn) [Compound 25, 6-Chloro-4-cyclopropyl-3,4-dihydro-4-(2-nitrophenylethynyl)quinazolin-2(1H)-one]?
Answer: IC50 [1]: 10.5 nM; IC50 (A17 RT): 390 nM

Question: `CN1C(=O)Nc2ccc(Cl)cc2C1(C#CCN=[N+]=[N-])C1CC1` (stereo not drawn) [Compound 7, 4-(3-azido-1-propynyl)-6-chloro-4-cyclopropyl-3,4-dihydro-3-methylquinazolin-2(1H)-one] was tested. Which IC50 [1] did it give?
Answer: 20 nM

Question: And the IC50 (A17 RT)?
Answer: 1750 nM

Question: What does the source list for `CN1C(=O)Nc2ccc(Cl)cc2C1(C#CCCCl)C1CC1` (stereo not drawn) [Compound 6, 6-chloro-4-(4-chloro-1-butynyl)-4-cyclopropyl-3,4-dihydro-3-methylquinazolin-2(1H)-one]?
Answer: IC50 [1]: 7 nM; IC50 (A17 RT): 250 nM

Question: How did the IC50 [1] turn out when `O=C1Nc2ccc(Cl)cc2C(C#Cc2cncnc2)(C2CC2)N1` (stereo not drawn) [Compound 14, 6-chloro-4-cyclopropyl-3,4-dihydro-4-((5-pyrimidinyl)ethynyl)quinazolin-2(1H)-one] was run?
Answer: 1750 nM

Question: What about the IC50 (A17 RT) of the same compound?
Answer: 3000 nM
